Experimental data published in article PMC7190724, “Improved GPCR ligands from nanobody tethering” (Nature Communications, 2020).
Read-outs that look alike come from different tables or passages of the source. Where a SMILES comes first, the peptide text is derived from it. [ ]: non-standard residue; d: D form. Aib = CC(C)(N)C(=O)O

Assays:
[1] = biological target: T1, hPTHR1 (Homo sapiens, UniProt Q03431); experiment: cAMP response (GloSensor luminescence), HEK293 stably expressing human PTHR1 (GP2.3); format: cell-based; conditions: peak GloSensor luminescence 12–16 min after ligand; mean ± SD, ≥3 independent experiments; highest conc. 100 nM conjugates, 10,000 nM peptides; read-out: EC50, cAMP induction
T1 construct: expressed in transfected cells; host or cells: HEK293 (clone GP2.3) with GloSensor cAMP reporter
T1 sequence (Q03431 27-593): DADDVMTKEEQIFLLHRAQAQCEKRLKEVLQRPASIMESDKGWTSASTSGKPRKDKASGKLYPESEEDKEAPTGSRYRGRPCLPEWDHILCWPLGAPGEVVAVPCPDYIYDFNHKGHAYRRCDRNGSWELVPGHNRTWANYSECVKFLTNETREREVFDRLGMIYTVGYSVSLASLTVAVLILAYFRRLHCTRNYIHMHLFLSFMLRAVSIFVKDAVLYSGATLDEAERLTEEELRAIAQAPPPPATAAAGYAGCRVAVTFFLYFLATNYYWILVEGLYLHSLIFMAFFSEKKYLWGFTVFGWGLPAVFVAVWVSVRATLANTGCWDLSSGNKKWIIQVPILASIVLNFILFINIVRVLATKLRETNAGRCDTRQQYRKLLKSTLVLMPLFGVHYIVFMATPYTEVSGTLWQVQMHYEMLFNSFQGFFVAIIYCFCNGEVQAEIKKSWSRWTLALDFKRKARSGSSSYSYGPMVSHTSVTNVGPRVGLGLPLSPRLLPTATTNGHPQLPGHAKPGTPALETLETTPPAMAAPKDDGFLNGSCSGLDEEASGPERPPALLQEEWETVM
Procedure: (§1) A HEK293 cell line stably expressing β-Arrestin2-YFP (GBR24) was constructed similarly. PTHR1_6E was produced using the Q5 Site-directed mutagenesis kit (NEB) and used to prepare a stably transfected HEK293-derived cell line. Annotated sequence data for all PTHR1 constructs are found in Supplementary Fig. 19. Aligned sequences of VHHs used in this study are shown in Supplementary Fig. 20.
(§2) These assays were performed as previously described. […] Confluent monolayers of cells were pre-incubated with CO2 independent medium containing D-luciferin (0.5 mM) at 37 °C until a stable baseline level of luminescence was established (20 min). Varying concentrations of ligands were then added, and the time course of luminescence response was recorded using BioTek plate reader.
(§3) Data were processed using Microsoft Excel and GraphPad Prism 6. Data from cAMP dose–response assays were analyzed using a sigmoidal dose–response model with variable slope. Data sets were statistically compared by using Student’s t test (two-tailed) assuming unequal variances for the two sets.

[2] = biological target: T2, PTHR1_6E (Homo sapiens, UniProt Q03431); experiment: cAMP response (GloSensor luminescence), HEK293 stably expressing PTHR1_6E; format: cell-based; conditions: peak GloSensor luminescence; mean ± SD, ≥3 independent experiments; read-out: EC50, cAMP induction
T2 sequence (Q03431 106-593 limits assumed): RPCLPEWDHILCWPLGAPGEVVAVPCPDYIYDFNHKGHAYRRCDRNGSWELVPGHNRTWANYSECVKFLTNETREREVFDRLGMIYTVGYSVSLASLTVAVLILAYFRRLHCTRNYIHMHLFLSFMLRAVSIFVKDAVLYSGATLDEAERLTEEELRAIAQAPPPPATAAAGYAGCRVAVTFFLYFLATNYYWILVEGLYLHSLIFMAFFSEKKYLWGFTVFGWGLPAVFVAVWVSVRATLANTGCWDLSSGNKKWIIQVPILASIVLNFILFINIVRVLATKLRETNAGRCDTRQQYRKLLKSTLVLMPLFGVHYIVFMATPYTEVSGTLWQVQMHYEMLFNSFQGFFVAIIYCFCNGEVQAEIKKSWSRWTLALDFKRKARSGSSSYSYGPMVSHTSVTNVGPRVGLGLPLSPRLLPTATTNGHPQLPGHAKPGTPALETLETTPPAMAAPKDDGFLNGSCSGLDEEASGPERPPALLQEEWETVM
Procedure: as §1, §2, §3

[3] = biological target: T3, PTHR1YFPΔECD (Homo sapiens, UniProt Q03431); experiment: cAMP response (GloSensor luminescence), HEK293 stably expressing PTHR1YFPΔECD (GD5Y); format: cell-based; conditions: peak GloSensor luminescence; mean ± SD, ≥3 independent experiments; read-out: EC50, cAMP induction
T3 construct: expressed in transfected cells; host or cells: HEK293 (clone GD5Y) with GloSensor cAMP reporter
T3 sequence (Q03431 with tags, fused parts or gaps limits assumed): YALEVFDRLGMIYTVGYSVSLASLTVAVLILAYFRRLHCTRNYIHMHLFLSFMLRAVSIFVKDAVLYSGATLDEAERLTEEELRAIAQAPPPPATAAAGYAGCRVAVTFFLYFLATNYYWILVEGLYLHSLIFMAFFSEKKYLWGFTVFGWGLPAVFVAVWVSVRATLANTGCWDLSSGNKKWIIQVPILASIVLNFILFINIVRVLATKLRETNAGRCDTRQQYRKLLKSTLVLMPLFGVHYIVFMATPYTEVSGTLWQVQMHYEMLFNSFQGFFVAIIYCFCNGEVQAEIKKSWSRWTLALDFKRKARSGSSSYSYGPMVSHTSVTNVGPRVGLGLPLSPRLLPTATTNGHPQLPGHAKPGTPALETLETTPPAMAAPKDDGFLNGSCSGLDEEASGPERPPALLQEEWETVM
Procedure: as §1, §2, §3

[4] = biological target: T4, PTHR1GFP (Homo sapiens, UniProt Q03431); experiment: cAMP response (GloSensor luminescence), HEK293 stably expressing PTHR1GFP (GPG10); format: cell-based
T4 sequence (Q03431 27-593): T1 sequence (Q03431 27-593)
Procedure: (§4) These assays were performed as previously described. Briefly, HEK-293-derived cell lines that stably express the Glosensor cAMP reporter (Promega Corp.)[30] and PTHR1, a PTHR1 variant, or PTHR2 were seeded into white sided 96-well plates (50,000 cells/well) and grown to confluency. Confluent monolayers of cells were pre-incubated with CO2 independent medium containing D-luciferin (0.5 mM) at 37 °C until a stable baseline level of luminescence was established (20 min). Varying concentrations of ligands were then added, and the time course of luminescence response was recorded using BioTek plate reader. The maximal luminescence response (observed 12–16 min after ligand addition) was used to construct dose-response data sets (Table 1, Supplementary Fig. 6).
as §3
Supplementary Figure 1. […]
GFP variant known as pHluorin2 engrafted into the receptor(ref. 19, main text). c) HEK293 cells stably expressing PTHR1-GFP were treated with varied doses of the indicated peptides or conjugates and activation was assessed by measuring luminescence from a cAMP-activated luciferase variant. Values listed represent EC50 values (mean ± SD). Each value comes from ≥ 3 independent experiments. Further details, including the number of replicates for each measurement and the normalized maximal responses induced, are reported in Supplementary Table 1. […]
than 5% of the maximal response induced for that cell line.
Peptide or conjugate PTHR1GFP

[5] = biological target: T5, hPTHR2 (Homo sapiens, UniProt P49190); experiment: cAMP response (GloSensor luminescence), HEK293 stably expressing hPTHR2; format: cell-based; conditions: peak GloSensor luminescence; mean ± SD, n = 3-4; read-out: EC50, cAMP induction
T5 construct: expressed in transfected cells
Procedure: as §4, §3

[6] = biological target: T4, PTHR1GFP; experiment: Flow cytometry binding of VHH-Alexafluor647 to HEK293 expressing PTHR1GFP; conditions: 100 nM VHH-Alexafluor647, on ice
Procedure: (§5) Suspensions of cells in PBS were stained for 1 h on ice in the presence of indicated concentrations of VHH probes functionalized with Alexafluor647. Cells were pelleted by centrifugation and washed with PBS prior to analysis by flow cytometry (BD Accuri C6). To select intact cells gating was performed on forward scatter/side scatter profiles for analysis (see Supplementary Fig. 4 for an example of the gating strategy). Data were analyzed using FlowJo version 7.6. The median fluorescent intensity (MFI) of stained cells was used to generate VHH binding dose response curves (Supplementary Fig. 4).
Supplementary Figure 1. […] HEK293 cell lines in suspension were incubated on ice with 100 nM VHH sortagged with Alexafluor647, pelleted by centrifugation, washed and analyzed. […]
PTHR1GFP. This weak staining is likely related to the inability of VHHGFP to tightly bind the pH-sensitive GFP variant known as pHluorin2 engrafted into the receptor(ref. 19, main text). c) HEK293 cells stably expressing PTHR1-GFP were treated with varied doses of the indicated peptides or conjugates and activation was assessed by measuring luminescence from a cAMP-activated luciferase variant. […]
Supplementary Figure 4. […] Cells were centrifuged, washed, and analyzed by flow cytometry via gating of intact cells (live gate) based on forward scatter/side scatter profiles (panel a). […]

[7] = biological target: T3, PTHR1YFPΔECD; experiment: Flow cytometry binding of VHH-Alexafluor647 to HEK293 expressing PTHR1YFPΔECD
Procedure: as §5
Supplementary Figure 4. Assessment of VHH binding to PTHR1 variants by flow cytometry. Cells dislodged from tissue culture plates using trypsinization were incubated with varied concentrations of VHHs sortagged with AlexaFluor647 on ice for 1 h. Cells were centrifuged, washed, and analyzed by flow cytometry via gating of intact cells (live gate) based on forward scatter/side scatter profiles (panel a). (b) Data points represent median fluorescent intensity values ( individual data points shown, n = 2 independent replicates per condition). Connecting curves are the result of fitting a sigmoidal dose - response model to the data points. Precise estimates for VHH PTHR binding cannot be provided since the […]
(1 picture or pasted object on this page, not shown here)

T5 sequence (P49190 25-550): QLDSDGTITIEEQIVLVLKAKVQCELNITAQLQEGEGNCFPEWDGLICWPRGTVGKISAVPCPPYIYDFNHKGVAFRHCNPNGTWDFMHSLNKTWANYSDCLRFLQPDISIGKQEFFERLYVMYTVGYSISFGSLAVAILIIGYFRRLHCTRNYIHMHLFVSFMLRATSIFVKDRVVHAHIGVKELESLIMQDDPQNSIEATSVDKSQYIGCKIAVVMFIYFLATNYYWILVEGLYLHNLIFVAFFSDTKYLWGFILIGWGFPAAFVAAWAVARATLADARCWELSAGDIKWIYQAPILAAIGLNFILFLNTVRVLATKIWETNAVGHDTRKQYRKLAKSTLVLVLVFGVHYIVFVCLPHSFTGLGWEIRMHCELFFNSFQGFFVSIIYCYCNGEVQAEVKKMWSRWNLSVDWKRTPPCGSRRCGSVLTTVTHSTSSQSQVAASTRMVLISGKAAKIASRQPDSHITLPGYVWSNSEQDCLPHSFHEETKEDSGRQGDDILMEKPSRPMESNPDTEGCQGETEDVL

Compound	EC50 [1] [µM]	EC50 [2] [µM]	EC50 [3] [µM]	EC50 ([4]; peak GloSensor luminescence, mean ± SD, ≥3 independent experiments, read-out: EC50, cAMP induction) [µM]	EC50 [4] [µM]	EC50 [5] [µM]	staining of cells [6]	staining of cells ([7]; 100 nM VHH-Alexafluor647, on ice)	half-maximal staining concentration ([7]; flow cytometry MFI, VHH-Alexafluor647, 1 h on ice) [nM]
CC[C@H](C)[C@H](NC(=O)[C@H](CCC(=O)O)NC(=O)C(C)(C)NC(=O)[C@@H](NC(=O)[C@H](C)N)C(C)C)C(=O)N[C@@H](CCC(N)=O)C(=O)N[C@@H](CC(C)C)C(=O)N[C@@H](CCSC)C(=O)N[C@@H](Cc1c[nH]cn1)C(=O)N[C@@H](CCC(N)=O)C(=O)N[C@@H](CS)C(N)=O [PTH(1-10)] (H-AV[Aib]EIQLMHQC-NH2)	3.12	5.08	3.84	2.55 ± 0.653	–	–	–	–	–
CC[C@H](C)[C@H](NC(=O)[C@H](CCC(=O)O)NC(=O)C(C)(C)NC(=O)[C@@H](NC(=O)[C@H](C)N)C(C)C)C(=O)N[C@@H](CCC(N)=O)C(=O)N[C@@H](CC(C)C)C(=O)N[C@@H](CCSC)C(=O)N[C@@H](Cc1c[nH]cn1)C(=O)N[C@@H](CCC(N)=O)C(=O)N[C@@H](CCCNC(=N)N)C(=O)N[C@@H](C)C(=O)N[C@@H](CCCCN)C(=O)N[C@@H](Cc1c[nH]c2ccccc12)C(=O)N[C@@H](CS)C(N)=O [PTH(1-14)] (H-AV[Aib]EIQLMHQRAKWC-NH2)	0.0043	0.0034	0.0011	–	0.0023 ± 0.0012	0.924 ± 0.328	–	–	–
VHHGFP: nanobody recognizing green or yellow fluorescent proteins (named VHH-enhancer)	–	–	–	–	–	–	only weakly stained	stained	< 10
